Measured values taken from US12186283B2, “Bismuth-thiol compositions and methods of use” (Microbion Corporation, priority 2018, dated 2025).
Converted amounts (≈) assume the structure as drawn. *1 amine or outer side, *2 acyl side, *3 side chain or, on linkers, in order; H or OH if unused. Where a SMILES comes first, the peptide text is derived from it. Bridges are numbered along the chain shown (N, C = ends). [ ]: non-standard residue; d: D form. The star is where a group is joined. hTyr(3S-OH,4S-OH,3'-OSO3H) = N[C@H](C(=O)O)[C@H](O)[C@@H](O)c1ccc(O)c(OS(=O)(=O)O)c1; Orn(4R-OH,5R-OH) = O=C([C@H](C[C@@H](O)[C@@H](O)N[*:3])N[*:1])[*:2]; Pro(3S-OH,4S-Me) = C[C@H]1CN[C@H](C(=O)O)[C@H]1O; X1 = CCCCCOc1ccc(-c2cc(-c3ccc(C(=O)*)cc3)no2)cc1; Gln(3R-OH) = NC(=O)C[C@@H](O)[C@H](N)C(=O)O; Hyp = O=C(O)[C@@H]1C[C@@H](O)CN1

What was measured:
E. coli ATCC 25922 = test: Broth microdilution MIC, QC organism (Example 13, Table 110); assay type: cell-based, Escherichia coli
Source text: (§1) MECs were only reported where observed.

Candida spp. [1] = conditions: C. parapsilosis ATCC 22019, CLSI established QC range, cited from earlier work
Candida krusei [2] = conditions: C. krusei ATCC 6258, CLSI established QC range, cited from earlier work
Candida spp. [3] = test: Broth microdilution MIC, yeast (Example 13), group statement and QC; assay type: cell-based; conditions: C. parapsilosis ATCC 22019, comparators, single value
Candida krusei [4] = test: Broth microdilution MIC, yeast (Example 13); assay type: cell-based; conditions: C. krusei ATCC 6258 (QC, Table 110), comparators, single value
Aspergillus spp. = test: Broth microdilution MIC/MEC, mold (Example 13); assay type: cell-based; conditions: MEC
S. aureus ATCC 29213 = test: Broth microdilution MIC, QC organism (Example 13, Table 110); assay type: cell-based, Staphylococcus aureus
Source text: as §1

[5] = A. flavus ATCC 204304 (QC, Table 110)
[6] = A. fumigatus ATCC MYA-3626 (QC, Table 110)

Row | SMILES | MIC 24 hr (E. coli ATCC 25922) | QC Range 24 hr (Candida spp. [1]) | QC Range 48 hr (Candida spp. [1]) | QC Range 24 hr (Candida krusei [2]) | QC Range 48 hr (Candida krusei [2]) | MIC 24 hr (Candida spp. [3]) | MIC 48 hr (Candida spp. [3]) | MIC 24 hr (Candida krusei [4]) | MIC 48 hr (Candida krusei [4]) | MIC 24 hr (MEC) (Aspergillus spp.; [5]) | MIC 24 hr (S. aureus ATCC 29213) | MIC 48 hr (MEC) (Aspergillus spp.; [5]) | MIC 24 hr (MEC) (Aspergillus spp.; [6]) | MIC 48 hr (MEC) (Aspergillus spp.; [6])
1 | CC[C@H](C)C[C@H](C)CCCCCCCCC(=O)N[C@H]1C[C@@H](O)[C@@H](NCCN)NC(=O)[C@@H]2[C@@H](O)CCN2C(=O)[C@H]([C@H](O)CCN)NC(=O)[C@H]([C@H](O)[C@@H](O)c2ccc(O)cc2)NC(=O)[C@@H]2C[C@@H](O)CN2C(=O)[C@H]([C@@H](C)O)NC1=O [Caspofungin] | > 64 µg/mL | 0.25-1 | 0.5-4 | 0.12-1 | 0.25-2 | 0.25 µg/mL (≈ 0.229 µM) | 0.5 µg/mL (≈ 0.457 µM) | 0.25 µg/mL (≈ 0.229 µM) | 0.25 µg/mL (≈ 0.229 µM) | 0.12 | > 64 µg/mL | – | – | –
2 | CCCCCOc1ccc(-c2cc(-c3ccc(C(=O)N[C@H]4C[C@@H](O)[C@@H](O)NC(=O)[C@@H]5[C@@H](O)[C@@H](C)CN5C(=O)[C@H]([C@H](O)CC(N)=O)NC(=O)[C@H]([C@H](O)[C@@H](O)c5ccc(O)c(OS(=O)(=O)O)c5)NC(=O)[C@@H]5C[C@@H](O)CN5C(=O)[C@H]([C@@H](C)O)NC4=O)cc3)no2)cc1 [Micafungin] (X1-[Orn(4R-OH,5R-OH)]T[Hyp][hTyr(3S-OH,4S-OH,3'-OSO3H)][Gln(3R-OH)][Pro(3S-OH,4S-Me)]; lactam 1-C) | > 64 µg/mL | 0.5-2 | 0.5-4 | 0.12-0.5 | 0.12-0.5 | 0.5 µg/mL (≈ 0.394 µM) | 2 µg/mL (≈ 1.57 µM) | 0.5 µg/mL (≈ 0.394 µM) | 0.5 µg/mL (≈ 0.394 µM) | 0.06 | > 64 µg/mL | 0.008 | 0.03 | 0.008
